Measurements reported in PubChem BioAssay (NCI).
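48-hour exposure; five concentrations; linearly interpolated endpoints. GI50 marks 50% less growth. TGI is the concentration that stops growth completely.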

Experiments:
Experiment in all cases: inhibition of tumour cell growth, NCI panel, 48 h
RPMI-8226 leukemia = test system: RPMI-8226 leukemia
SK-OV-3 ovarian = test system: SK-OV-3 ovarian
SK-MEL-5 melanoma = test system: SK-MEL-5 melanoma
MCF7 breast = test system: MCF7 breast
BT-549 breast = test system: BT-549 breast
OVCAR-8 ovarian = test system: OVCAR-8 ovarian
IGROV1 ovarian = test system: IGROV1 ovarian
NCI-H23 lung = test system: NCI-H23 lung
HCT-116 colon = test system: HCT-116 colon
HL-60(TB) leukemia = test system: HL-60(TB) leukemia
KM12 colon = test system: KM12 colon
HOP-92 NSCLC = test system: HOP-92 NSCLC
SK-MEL-28 melanoma = test system: SK-MEL-28 melanoma
MALME-3M melanoma = test system: MALME-3M melanoma
CAKI-1 renal = test system: CAKI-1 renal
SN12C renal = test system: SN12C renal
SNB-75 CNS = test system: SNB-75 CNS
TK-10 renal = test system: TK-10 renal
T-47D breast = test system: T-47D breast
A498 renal = test system: A498 renal
SW-620 colon = test system: SW-620 colon
HT29 colon = test system: HT29 colon
K-562 leukemia = test system: K-562 leukemia
NCI/ADR-RES ovarian = test system: NCI/ADR-RES ovarian
COLO 205 colon = test system: COLO 205 colon
786-0 renal = test system: 786-0 renal
UO-31 renal = test system: UO-31 renal
OVCAR-3 ovarian = test system: OVCAR-3 ovarian
UACC-257 melanoma = test system: UACC-257 melanoma
UACC-62 melanoma = test system: UACC-62 melanoma
MDA-MB-468 breast = test system: MDA-MB-468 breast
PC-3 prostate = test system: PC-3 prostate
HCC-2998 colon = test system: HCC-2998 colon
SK-MEL-2 melanoma = test system: SK-MEL-2 melanoma
ACHN renal = test system: ACHN renal
CCRF-CEM leukemia = test system: CCRF-CEM leukemia
HCT-15 colon = test system: HCT-15 colon
MOLT-4 leukemia = test system: MOLT-4 leukemia
MDA-MB-435 = test system: MDA-MB-435
HS 578T breast = test system: HS 578T breast
NCI-H226 lung = test system: NCI-H226 lung
LOX IMVI melanoma = test system: LOX IMVI melanoma
HOP-62 NSCLC = test system: HOP-62 NSCLC
SF-268 CNS = test system: SF-268 CNS
EKVX NSCLC = test system: EKVX NSCLC
MDA-MB-231 breast = test system: MDA-MB-231 breast
SF-539 CNS = test system: SF-539 CNS
SNB-19 CNS = test system: SNB-19 CNS
NCI-H522 lung = test system: NCI-H522 lung
RXF 393 renal = test system: RXF 393 renal
OVCAR-4 ovarian = test system: OVCAR-4 ovarian
DU-145 prostate = test system: DU-145 prostate
OVCAR-5 ovarian = test system: OVCAR-5 ovarian
A549 NSCLC = test system: A549 NSCLC
NCI-H460 lung = test system: NCI-H460 lung
SF-295 CNS = test system: SF-295 CNS
U251 CNS = test system: U251 CNS
M14 melanoma = test system: M14 melanoma

CCN(CC)CCOc1ccc(Nc2ncc3cc(-c4ccc(O)c(C#N)c4)c(=O)n(C)c3n2)cc1
GI50 (RPMI-8226 leukemia): 26.7 µM
TGI (RPMI-8226 leukemia): > 100 µM
GI50 (SK-OV-3 ovarian): > 100 µM
TGI (SK-OV-3 ovarian): > 100 µM
GI50 (SK-MEL-5 melanoma): 13.9 µM
TGI (SK-MEL-5 melanoma): 27.2 µM
GI50 (MCF7 breast): 15.3 µM
TGI (MCF7 breast): 32.9 µM
GI50 (BT-549 breast): 24.8 µM
TGI (BT-549 breast): 59.3 µM
GI50 (OVCAR-8 ovarian): > 100 µM
TGI (OVCAR-8 ovarian): > 100 µM
GI50 (IGROV1 ovarian): 68 µM
TGI (IGROV1 ovarian): > 100 µM
GI50 (NCI-H23 lung): > 100 µM
TGI (NCI-H23 lung): > 100 µM
GI50 (HCT-116 colon): 30.7 µM
TGI (HCT-116 colon): > 100 µM
GI50 (HL-60(TB) leukemia): > 100 µM
TGI (HL-60(TB) leukemia): > 100 µM
GI50 (KM12 colon): 28.3 µM
TGI (KM12 colon): > 100 µM
GI50 (HOP-92 NSCLC): 4.46 µM
TGI (HOP-92 NSCLC): 22.8 µM
GI50 (SK-MEL-28 melanoma): 17.2 µM
TGI (SK-MEL-28 melanoma): 31.5 µM
GI50 (MALME-3M melanoma): 15.1 µM
TGI (MALME-3M melanoma): 28.5 µM
GI50 (CAKI-1 renal): 48 µM
TGI (CAKI-1 renal): > 100 µM
GI50 (SN12C renal): 62.3 µM
TGI (SN12C renal): > 100 µM
GI50 (SNB-75 CNS): 2550 nM
TGI (SNB-75 CNS): > 100 µM
GI50 (TK-10 renal): > 100 µM
TGI (TK-10 renal): > 100 µM
GI50 (T-47D breast): 15.6 µM
TGI (T-47D breast): 38.9 µM
GI50 (A498 renal): 62.6 µM
TGI (A498 renal): > 100 µM
GI50 (SW-620 colon): 55.4 µM
TGI (SW-620 colon): > 100 µM
GI50 (HT29 colon): 9.92 µM
TGI (HT29 colon): 41.3 µM
GI50 (K-562 leukemia): 5.45 µM
TGI (K-562 leukemia): > 100 µM
GI50 (NCI/ADR-RES ovarian): > 100 µM
TGI (NCI/ADR-RES ovarian): > 100 µM
GI50 (COLO 205 colon): 25 µM
TGI (COLO 205 colon): > 100 µM
GI50 (786-0 renal): 15 µM
TGI (786-0 renal): 29 µM
GI50 (UO-31 renal): > 100 µM
TGI (UO-31 renal): > 100 µM
GI50 (OVCAR-3 ovarian): > 100 µM
TGI (OVCAR-3 ovarian): > 100 µM
GI50 (UACC-257 melanoma): 18.8 µM
TGI (UACC-257 melanoma): 37.9 µM
GI50 (UACC-62 melanoma): 15.4 µM
TGI (UACC-62 melanoma): 29.3 µM
GI50 (MDA-MB-468 breast): 15.6 µM
TGI (MDA-MB-468 breast): 30.2 µM
GI50 (PC-3 prostate): > 100 µM
TGI (PC-3 prostate): > 100 µM
GI50 (HCC-2998 colon): > 100 µM
TGI (HCC-2998 colon): > 100 µM
GI50 (SK-MEL-2 melanoma): 15.7 µM
TGI (SK-MEL-2 melanoma): 31.9 µM
GI50 (ACHN renal): 49.3 µM
TGI (ACHN renal): > 100 µM
GI50 (CCRF-CEM leukemia): 16.1 µM
TGI (CCRF-CEM leukemia): 53.5 µM
GI50 (HCT-15 colon): > 100 µM
TGI (HCT-15 colon): > 100 µM
GI50 (MOLT-4 leukemia): 17.4 µM
TGI (MOLT-4 leukemia): 66.4 µM
GI50 (MDA-MB-435): 18.4 µM
TGI (MDA-MB-435): 36.5 µM
GI50 (HS 578T breast): 6.77 µM
TGI (HS 578T breast): 30.8 µM
GI50 (NCI-H226 lung): 13 µM
TGI (NCI-H226 lung): 53.4 µM
GI50 (LOX IMVI melanoma): 22.6 µM
TGI (LOX IMVI melanoma): > 100 µM
GI50 (HOP-62 NSCLC): > 100 µM
TGI (HOP-62 NSCLC): > 100 µM
GI50 (SF-268 CNS): 24 µM
TGI (SF-268 CNS): > 100 µM
GI50 (EKVX NSCLC): > 100 µM
TGI (EKVX NSCLC): > 100 µM
GI50 (MDA-MB-231 breast): 19.3 µM
TGI (MDA-MB-231 breast): > 100 µM
GI50 (SF-539 CNS): 17.8 µM
TGI (SF-539 CNS): 64.3 µM
GI50 (SNB-19 CNS): 25.8 µM
TGI (SNB-19 CNS): 57.3 µM
GI50 (NCI-H522 lung): 17.4 µM
TGI (NCI-H522 lung): 35 µM
GI50 (RXF 393 renal): 3.28 µM
TGI (RXF 393 renal): 14.1 µM
GI50 (OVCAR-4 ovarian): > 100 µM
TGI (OVCAR-4 ovarian): > 100 µM
GI50 (DU-145 prostate): > 100 µM
TGI (DU-145 prostate): > 100 µM
GI50 (OVCAR-5 ovarian): > 100 µM
TGI (OVCAR-5 ovarian): > 100 µM
GI50 (A549 NSCLC): > 100 µM
TGI (A549 NSCLC): > 100 µM
GI50 (NCI-H460 lung): 37.5 µM
TGI (NCI-H460 lung): > 100 µM
GI50 (SF-295 CNS): > 100 µM
TGI (SF-295 CNS): > 100 µM
GI50 (U251 CNS): 18.6 µM
TGI (U251 CNS): 35.6 µM
GI50 (M14 melanoma): 13.4 µM
TGI (M14 melanoma): 27.1 µM
